Experimental data taken from ChEMBL document CHEMBL4725235, “Small molecule DTDQ exerts anti-metastatic effects in DU145 human castration-resistant prostate cancer cells via modulations of ERK, JNK, p38 and c-Myc signaling pathways” (Bioorg Med Chem Lett, 2020).
Calls of active or inactive are those of the source. The calls are words filed in the database; no cut-off is given here.

What was measured:
DU-145 [1] = experiment: Cytotoxicity against human DU-145 cells assessed as reduction in cell viability at 10 uM incubated for 24 hrs by CCK8 assay relative to control; format: functional
DU-145 [2] = experiment: Cytotoxicity against human DU-145 cells assessed as reduction in cell viability after 24 hrs by CCK8 assay; format: functional, cell-based; conditions: DU-145, 24 h
DU-145 [3] = experiment: Inhibition of colony formation in human DU-145 cells at 12 to 24 uM incubated for 2 weeks with media replacement for every 3 days by crystal violet staining based microscopic analysis; format: functional, cell-based; conditions: dose microM 12-24, time 2.0 weeks
DU-145 [4] = experiment: Inhibition of cell migration in human DU-145 cells at 12 to 24 uM incubated for 24 hrs by wound healing assay; format: functional, cell-based; conditions: dose microM 12-24, time 24.0 hrs
DU-145 [5] = experiment: Antiinvasive activity against human DU-145 cells assessed as inhibition of cell migration at 12 to 24 uM incubated for 20 hrs by Boyden chamber assay; format: functional, cell-based; conditions: dose microM 12-24, time 20.0 hrs
DU-145 [6] = experiment: Inhibition of metastasis in human DU-145 cells assessed as reduction in MMP2 expression incubated for 48 hrs by Western blot analysis; format: functional, cell-based; conditions: dose microM 12-24, time 48.0 hrs
DU-145 [7] = experiment: Inhibition of metastasis in human DU-145 cells assessed as reduction in MMP9 expression incubated for 48 hrs by Western blot analysis; format: functional, cell-based; conditions: dose microM 12-24, time 48.0 hrs
DU-145 [8] = experiment: Inhibition of metastasis in human DU-145 cells assessed as reduction in MMP2 mRNA expression at 12 to 24 uM incubated for 48 hrs by qRT-PCR analysis; format: functional, cell-based; conditions: dose microM 12-24, time 48.0 hrs
DU-145 [9] = experiment: Inhibition of metastasis in human DU-145 cells assessed as reduction in MMP9 mRNA expression at 12 to 24 uM incubated for 48 hrs by qRT-PCR analysis; format: functional, cell-based; conditions: dose microM 12-24, time 48.0 hrs
DU-145 [10] = experiment: Modulatory activity of MAPK signaling pathway in human DU-145 cells assessed as reduction in ERK phosphorylation incubated for 24 hrs by Western blot analysis; format: cell-based; conditions: filed as modulator, dose microM 12-24, time 24.0 hrs
DU-145 [11] = experiment: Modulatory activity of MAPK signaling pathway in human DU-145 cells assessed as increase in JNK activation at 12 to 24 uM incubated for 24 hrs by Western blot analysis; format: cell-based; conditions: filed as modulator, dose microM 12-24, time 24.0 hrs
DU-145 [12] = experiment: Modulatory activity of MAPK signaling pathway in human DU-145 cells assessed as increase in p38 activation at 12 to 24 uM incubated for 24 hrs by Western blot analysis; format: cell-based; conditions: filed as modulator, dose microM 12-24, time 24.0 hrs
DU-145 [13] = experiment: Modulatory activity of MAPK signaling pathway in human DU-145 cells assessed as reduction in c-MYC expression at 12 to 24 uM incubated for 24 hrs by Western blot analysis; format: cell-based; conditions: filed as modulator, dose microM 12-24, time 24.0 hrs
DU-145 [14] = experiment: Modulatory activity of MAPK signaling pathway in human DU-145 cells assessed as beta-catenine expression at 12 to 24 uM incubated for 24 hrs by Western blot analysis; format: cell-based; conditions: dose microM 12-24, time 24.0 hrs
DU-145 [15] = experiment: Modulatory activity of MAPK signaling pathway in human DU-145 cells assessed as NFkappaB expression at 12 to 24 uM incubated for 24 hrs by Western blot analysis; format: cell-based; conditions: dose microM 12-24, time 24.0 hrs
DU-145 [16] = experiment: Modulatory activity of MAPK signaling pathway in human DU-145 cells assessed as EST-1 expression at 12 to 24 uM incubated for 24 hrs by Western blot analysis; format: cell-based; conditions: dose microM 12-24, time 24.0 hrs
PC-3 [17] = experiment: Cytotoxicity against human PC-3 cells assessed as reduction in cell viability at 40 uM incubated for 24 hrs by CCK8 assay relative to control; format: functional
PC-3 [18] = experiment: Inhibition of colony formation in human PC-3 cells incubated for 2 weeks with media replacement for every 3 days by crystal violet staining based microscopic analysis; format: functional, cell-based; conditions: dose microM 12-24, time 2.0 weeks
PC-3 [19] = experiment: Inhibition of cell migration in human PC-3 cells at 12 to 24 uM incubated for 24 hrs by wound healing assay; format: functional, cell-based; conditions: dose microM 12-24, time 24.0 hrs
PC-3 [20] = experiment: Inhibition of metastasis in human PC-3 cells assessed as reduction in MMP2 expression at 12 to 24 uM incubated for 48 hrs by Western blot analysis; format: functional, cell-based; conditions: dose microM 12-24, time 48.0 hrs
PC-3 [21] = experiment: Inhibition of metastasis in human PC-3 cells assessed as reduction in MMP9 expression at 12 to 24 uM incubated for 48 hrs by Western blot analysis; format: functional, cell-based; conditions: dose microM 12-24, time 48.0 hrs
PC-3 [22] = experiment: Modulatory activity of MAPK signaling pathway in human PC-3 cells assessed as reduction in ERK phosphorylation incubated for 24 hrs by Western blot analysis; format: cell-based; conditions: filed as modulator, dose microM 12-24, time 24.0 hrs
PC-3 [23] = experiment: Modulatory activity of MAPK signaling pathway in human PC-3 cells assessed as increase in JNK phosphorylation at 12 to 24 uM incubated for 24 hrs by Western blot analysis; format: cell-based; conditions: filed as modulator, dose microM 12-24, time 24.0 hrs
PC-3 [24] = experiment: Modulatory activity of MAPK signaling pathway in human PC-3 cells assessed as increase in p38 phosphorylation at 12 to 24 uM incubated for 24 hrs by Western blot analysis; format: cell-based; conditions: dose microM 12-24, time 24.0 hrs
PC-3 [25] = experiment: Modulatory activity of MAPK signaling pathway in human PC-3 cells assessed as reduction in c-MYC expression at 12 to 24 uM incubated for 24 hrs by Western blot analysis; format: cell-based; conditions: filed as modulator, dose microM 12-24, time 24.0 hrs
PC-3 [26] = experiment: Modulatory activity of MAPK signaling pathway in human PC-3 cells assessed as beta-catenine expression at 12 to 24 uM incubated for 24 hrs by Western blot analysis; format: cell-based; conditions: dose microM 12-24, time 24.0 hrs
PC-3 [27] = experiment: Modulatory activity of MAPK signaling pathway in human PC-3 cells assessed as NFkappaB expression at 12 to 24 uM incubated for 24 hrs by Western blot analysis; format: cell-based; conditions: dose microM 12-24, time 24.0 hrs
PC-3 [28] = experiment: Modulatory activity of MAPK signaling pathway in human PC-3 cells assessed as EST-1 expression at 12 to 24 uM incubated for 24 hrs by Western blot analysis; format: cell-based; conditions: dose microM 12-24, time 24.0 hrs

SMILES: COc1cc(C2CC(=O)Nc3cc(C)c(C)cc32)cc(OC)c1OC (stereo not drawn)
- Activity (DU-145 [1]): 70%
- IC50 (DU-145 [2]): > 200 µM
- inhibition (DU-145 [3]): Active
- inhibition (DU-145 [4]): Active
- inhibition (DU-145 [5]): Active
- inhibition (DU-145 [6]): Dose-dependent effect
- inhibition (DU-145 [7]): Dose-dependent effect
- inhibition (DU-145 [8]): Active
- inhibition (DU-145 [9]): Active
- Activity (DU-145 [10]): Dose-dependent effect
- Activity (DU-145 [11]): Active
- Activity (DU-145 [12]): Active
- Activity (DU-145 [13]): Active
- Activity (DU-145 [14]): inactive
- Activity (DU-145 [15]): inactive
- Activity (DU-145 [16]): inactive
- Activity (PC-3 [17]): 20%
- inhibition (PC-3 [18]): Dose-dependent effect
- inhibition (PC-3 [19]): Active
- inhibition (PC-3 [20]): Active
- inhibition (PC-3 [21]): inactive
- Activity (PC-3 [22]): Active
- Activity (PC-3 [23]): Active
- Activity (PC-3 [24]): inactive
- Activity (PC-3 [25]): Active
- Activity (PC-3 [26]): inactive
- Activity (PC-3 [27]): inactive
- Activity (PC-3 [28]): inactive
